The source of these data is PMC10468942, “A Fluorescent Probe as a Lead Compound for a Selective α-Synuclein PET Tracer: Development of a Library of 2-Styrylbenzothiazoles and Biological Evaluation of [^18F]PFSB and [^18F]MFSB” (ACS Omega, 2023).

The structures appear in SMILES notation. Where two headings read alike, the source gives them in different places.

Data set [1] deals with αSYN pathology in human brain slices (MSA, PD, AD, control). In words: In vitro autoradiography on human brain slices. It is filed as binding. As to conditions: 10 nM tracer, AD sample vs frontal cortex control. The protocol:
Post-mortem human brain slices (10 μm thickness) were obtained from the subject cases and were analyzed by the Neurobiobank München (NBM, Munich, Germany), where tissues were collected on the basis of written informed consent according to the guidelines of the ethics committee of the Ludwig Maximilians University of Munich, Germany (# 345-13). The use of brain tissue samples in this study was approved by the ethics committee of the Faculty of Medicine at the University of Tuebingen (Ethics approval number: 813/2018BO2). Table S4 (Supporting Information) summarizes the information of the subjects from which samples were obtained and used in the experiment.
For autoradiography, frozen brain slices were thawed for 1 h before preincubation in bovine serum albumin (BSA) buffer for 25 min at room temperature. To determine total binding (TB), brain slices were incubated with the tracer (10 nM [^18F]PFSB, 10 nM [^18F]MFSB). Incubation of consecutive slices with the corresponding nonradioactive compounds (10 μM PFSB, 10 μM MFSB) was performed to determine nonspecific binding (NSB). The nonradioactive compounds were prepared by dissolving in DMSO to 10 mM, which yielded a DMSO concentration of ≤0.1% in the final solution. Incubation was carried out for 1 hour at room temperature with subsequent washing in cold BSA buffer (3 × 10 min) followed by three dippings in cold deionized water. After drying under an IR lamp, brain slices were exposed to a storage phosphor screen (Molecular Dynamics, Caesarea, Israel) for 18 h, which was then scanned in a phosphor imager (STORM 840, Molecular Dynamics, Sunnyvale, CA).
Quantitative data analysis was performed by drawing four regions of interest (ROIs) in relevant areas of the slice and one ROI next to it for background subtraction (Figures S7 and S8; ImageJ 1.8.0_172, National Institute of Health, Bethesda, MD).[28] Specific binding (SB) is obtained by subtracting NSB from TB. The SB disease/SB control ratio was calculated by dividing by the SB in diseased tissues with the respective SB in control tissues.

A short description of data set [2]: In vivo dynamic PET/MR imaging in healthy wild-type mice. Also on record: species or system C57BL/6J mice. As to the method:
The animal experiments were performed in compliance with the European directives on the protection and use of laboratory animals (Council Directive 2010/63/UE) and the German animal welfare act with approval from the local authorities (Regierungspräsidium Tuebingen, R3/19G). Healthy wild-type female C57BL/6J mice (20.3 ± 0.9 g; 9 weeks old) purchased from Charles River Laboratories (Sulzbach, Germany) were maintained in our vivarium on a 12:12 hour light–dark cycle, and were kept at a temperature of 22 °C with 40–60% humidity and free access to a standard diet and tap water.
The mice (n = 3) were anesthetized with 1.5% isoflurane evaporated in 100% oxygen at a flow rate of 0.8 L/min. A body temperature of 37 °C was maintained using a feedback temperature control unit. PET imaging studies were performed on Inveon dedicated microPET system (Inveon D-PET, Siemens, Knoxville, TN). Five seconds after the start of PET acquisition, the mice were injected intravenously with 9.9 ± 0.6 MBq of [^18F]MFSB (Am = 46.2 ± 2.5 GBq/μmol at the time of injection). The 1 h dynamic acquisitions were divided into 39 time frames (12 × 5 s, 6 × 10 s, 6 × 30 s, 5 × 60 s, and 10 × 300 s). A 13-min transmission measurement with a cobalt-57 point source was performed for attenuation correction. Subsequently, an anatomical MR scan with a 7 Tesla MR scanner (ClinScan, Bruker BioSpin MRI GmbH, Ettlingen, Germany) using a rat whole-body volume coil and the Paravision software (v6.0.1, Bruker, Ettlingen, Germany) using a T2-weighted Turbo-RARE MRI sequence.
The PET image was reconstructed via the OSEM3D/SP-MAP reconstruction algorithm and coregistered to the whole-body MRI scan. Volumes of interest (VOIs) were hand-drawn for the relevant organs based on the MR anatomy in PMOD (PMOD Technologies, Faellanden, Switzerland, Version 4.2) and VOIs at different regions in the mouse brain were extracted using the atlas provided by PMOD to calculate the respective time–activity curves (TACs). Standardized uptake values (SUVs) were calculated as a ratio of the detected activity with injected activity and weight (SUV = (TAC (kBq/cc)/inj. activity (kBq)) × weight (g)).

Data set [3] deals with T1, αSYN fibrils (Homo sapiens, UniProt P37840).
T1 construct: cloning of the DNA construct encoding full-length αSYN into the pET-22b vector; made in house; host or cells: Escherichia coli BL21
In words: [^3H]PiB competition binding assay on αSYN fibrils. As to the method:
Following the cloning of the DNA construct encoding full-length αSYN into the pET-22b vector and its transformation into BL21 cells, the expression of human αSYN from a prokaryotic host was induced overnight in Escherichia coli at 20 °C with 0.5 mM IPTG. The cells were harvested by centrifugation, resuspended in 20 mM Tris-HCl pH 7.6, 25 mM NaCl and 1× complete protease inhibitor (Roche, Basel, Switzerland), and lysed by sonication. […] Anion exchange chromatography (HiTrap Q, GE Healthcare, Chicago, Illinois) was used to trap the produced αSYN, which was eluted with NaCl 0.1 M over 20 column volumes. Fractions containing αSYN were concentrated and further purified through a Superdex 75 SEC column equilibrated with PBS. […] A 4 mg/mL solution of αSYN in 20 mM K3PO4 pH 9.1 was placed in an orbital shaker at 37 °C, 1000 rpm for 5 days to prepare P91s. The assemblies were either sonicated with cycles of 20 s on and 10 s off at 50% amplitude (Q800R3, Qsonica) for a total of 10 min or directly aliquoted in volumes of 10 μL each stored at −80 °C until use. […] The final products were aliquoted, frozen on dry ice, and stored at −80 °C until use.
Concentrations of αSYN and Aβ1-42 fibrils were as described above.
Plates were incubated on a shaker (MaxQ 6000, Thermo Fisher Scientific, Inc., Marietta, OH) at 50 rpm for 2 h at 37 °C, covered by removable sealing tapes (PerkinElmer, Waltham, MA). Vacuum filtration and read-out were performed as previously reported.[17] […] Data points were fitted using nonlinear regression analysis in GraphPad Prism (GraphPad Software, Inc., Version 8.4.0, La Jolla).

Data set [4] concerns the target αSYN fibrils. Details: method as in PMID 33819025. The following applies: fluorescence titration; cited from earlier work.
Where [5] appears, read: mice n = 3, i.v., 60 min dynamic PET.

In the case of `[18F]c1ccc2nc(/C=C/c3ccc(N4CCOCC4)cc3)sc2c1` [[^18F]MFSB], the “AD/frontal cortex SB ratio” value in data set [1] is recorded as “remained favorable”. For the same compound, in data set [2] (setting [5]), the “SUV, TAC peak value, blood” value was 6.94 ± 0.71; the “SUV, TAC peak value, brain” value came to 1.79 ± 0.02; the “SUV, TAC peak value, kidney” value is listed as 2.70 ± 0.27; the “SUV, TAC peak value, liver” value worked out at 5.00 ± 0.35. Further, in data set [2] (setting [5]), the “SUV, TAC peak value, lung” value was determined as 4.43 ± 0.33. Besides, the “SUV, TAC peak value, bone” value in data set [2] (mice n = 3, i.v., at 60 min) amounted to 1.52 ± 0.20. In addition, in data set [2] (mice, PET), the “SUV peak in the cerebellum” value is given as “up to 1.76”, the “SUV peak in the frontal cortex” value is on record as “up to 1.58” and the SUVbrain/SUVblood came to 2.7. Further, in data set [2] (mice, PET TAC), the “Time to peak, bone” value came to 60 min; the “Time to peak, brain” value stood at 25 min; the “Time to peak, kidney” value amounted to 110 s; the “Time to peak, liver” value is listed as 90 s. For the same compound, the “Time to peak, lung” value in data set [2] (mice, PET TAC) is 15 s. Further, in data set [2] (mice, PET TAC over 60 min), the “AUC, brain” value is 98.13 ± 1.30; the “AUC, kidney” value was 102.27 ± 1.33; the “AUC, liver” value amounted to 188.40 ± 6.15; the “AUC, lung” value is 51.22 ± 3.94.
As to `CN1CCN(c2ccc(C=Cc3sc4ccccc4[n+]3C)cc2)CC1` [RB2, 3-Methyl-2-(4-(4-methylpiperazin-1-yl)styryl)benzo[d]thiazol-3-ium Iodide, reference compound], the Ki (as a rule, a measure of affinity in units of concentration, obtained from inhibition or displacement) on αSYN fibrils [3] (Ki-RB2, αSYN [^3H]PiB competition) was 333 µM; on αSYN fibrils [3] (methylated compounds, Table 2, two values in a cell = single determinations, read-out: Ki) it was above 0.4 µM. For the same compound, the Kd (in general, a measure of binding affinity in units of concentration) at αSYN fibrils [4] was 4.4 ± 0.5 µM.
